Experimental data as given in publication PMC9102038 (International Journal of Molecular Sciences, 2022).
pEC50: −log10 of the molar value. Like-named read-outs stand apart in the source and are kept apart here.

Assays:
[1] = molecular target: T1, human PPARα-LBD (Homo sapiens, UniProt Q07869); assay: TR-FRET SRC1 coactivator peptide recruitment assay, PPARα-LBD
T1 sequence (Q07869 200-468): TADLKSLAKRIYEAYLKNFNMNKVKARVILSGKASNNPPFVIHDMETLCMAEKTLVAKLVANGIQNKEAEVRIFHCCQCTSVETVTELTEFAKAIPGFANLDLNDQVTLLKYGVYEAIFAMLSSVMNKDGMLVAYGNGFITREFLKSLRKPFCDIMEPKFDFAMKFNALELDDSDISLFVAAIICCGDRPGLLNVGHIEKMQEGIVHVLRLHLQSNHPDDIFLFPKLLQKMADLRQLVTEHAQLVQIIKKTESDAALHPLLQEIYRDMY

[2] = molecular target: T1, human PPARα-LBD; assay: TR-FRET PGC1α coactivator peptide recruitment assay, PPARα-LBD
[3] = molecular target: T2, GAL4–human PPARα-LBD chimera (Homo sapiens, UniProt Q07869); assay: GAL4–hPPARα-LBD dual luciferase transactivation assay in COS-7 cells
T2 sequence (Q07869 239-466 limits assumed): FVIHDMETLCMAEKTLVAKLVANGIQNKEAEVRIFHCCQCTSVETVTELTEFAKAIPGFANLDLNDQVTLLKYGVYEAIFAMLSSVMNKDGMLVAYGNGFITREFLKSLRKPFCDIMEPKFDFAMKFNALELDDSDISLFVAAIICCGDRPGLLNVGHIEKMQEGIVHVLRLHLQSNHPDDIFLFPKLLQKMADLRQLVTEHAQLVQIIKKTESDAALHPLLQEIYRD

[4] = single dose (200 mg) of bezafibrate; read-out: maximal plasma concentration (Cmax); cited from earlier work
[5] = test system: PPARα; parameters: method as in PMID 14982965; conditions: read-out: EC50, PPARα transactivation, previous experiments; cited from earlier work
[6] = test system: PPARδ; parameters: method as in PMID 14982965; conditions: read-out: EC50, PPARδ transactivation, previous experiments; cited from earlier work
[7] = test system: PPARγ; parameters: method as in PMID 14982965; conditions: read-out: EC50, PPARγ transactivation, previous experiments; cited from earlier work
[8] = molecular target: T3, PPARδ-LBD (Homo sapiens, UniProt Q03181); assay: TR-FRET SRC1 coactivator peptide recruitment assay, PPARδ-LBD
T3 sequence (Q03181 170-441): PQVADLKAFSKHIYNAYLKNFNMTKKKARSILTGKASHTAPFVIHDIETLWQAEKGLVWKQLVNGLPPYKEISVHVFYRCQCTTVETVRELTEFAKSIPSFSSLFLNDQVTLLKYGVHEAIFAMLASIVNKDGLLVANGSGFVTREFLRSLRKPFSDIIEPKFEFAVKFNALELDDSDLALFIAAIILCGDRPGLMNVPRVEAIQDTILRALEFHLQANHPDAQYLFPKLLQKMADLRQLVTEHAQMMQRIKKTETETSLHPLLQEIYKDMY

[9] = molecular target: T4, human PPARγ-LBD (Homo sapiens, UniProt P37231); assay: TR-FRET SRC1 coactivator peptide recruitment assay, PPARγ-LBD
T4 sequence (P37231 203-477 isoform P37231-2): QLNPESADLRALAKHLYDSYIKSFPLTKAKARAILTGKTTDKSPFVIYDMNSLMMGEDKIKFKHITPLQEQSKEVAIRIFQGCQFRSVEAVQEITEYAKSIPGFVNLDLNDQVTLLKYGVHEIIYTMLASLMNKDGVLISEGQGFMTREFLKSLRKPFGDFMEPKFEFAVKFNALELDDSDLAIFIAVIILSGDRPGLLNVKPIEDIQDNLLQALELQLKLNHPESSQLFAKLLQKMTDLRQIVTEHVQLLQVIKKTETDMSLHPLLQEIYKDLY

[10] = molecular target: T4, human PPARγ-LBD; assay: TR-FRET PGC1α coactivator peptide recruitment assay, PPARγ-LBD
[11] = molecular target: T5, GAL4–human PPARδ-LBD chimera (Homo sapiens, UniProt Q03181); assay: GAL4–hPPARδ-LBD dual luciferase transactivation assay in COS-7 cells; conditions: for efficacy, PPARδ-LBD-mediated transactivation: maximal effect of GW501516 (0.02 µM) as 100%
T5 sequence (Q03181 211-439 limits assumed): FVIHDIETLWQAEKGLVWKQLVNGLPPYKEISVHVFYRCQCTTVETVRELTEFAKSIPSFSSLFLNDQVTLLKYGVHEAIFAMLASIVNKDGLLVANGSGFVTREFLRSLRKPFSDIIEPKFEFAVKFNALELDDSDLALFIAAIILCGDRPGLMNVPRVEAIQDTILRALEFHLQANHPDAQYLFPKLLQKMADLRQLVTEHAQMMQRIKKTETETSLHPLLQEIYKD

[12] = molecular target: T6, GAL4–human PPARγ-LBD chimera (Homo sapiens, UniProt P37231); assay: GAL4–hPPARγ-LBD dual luciferase transactivation assay in COS-7 cells; conditions: for efficacy, PPARγ-LBD-mediated transactivation: maximal effect of GW1929 (1 µM) as 100%
T6 sequence (P37231 238-503 limits assumed): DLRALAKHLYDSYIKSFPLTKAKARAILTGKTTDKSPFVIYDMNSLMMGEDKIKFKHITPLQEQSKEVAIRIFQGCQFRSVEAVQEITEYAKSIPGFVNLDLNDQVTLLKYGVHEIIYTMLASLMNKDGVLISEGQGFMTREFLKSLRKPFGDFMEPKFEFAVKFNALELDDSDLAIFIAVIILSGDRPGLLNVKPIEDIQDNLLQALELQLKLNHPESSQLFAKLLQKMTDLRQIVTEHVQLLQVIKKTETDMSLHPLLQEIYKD

[13] = molecular target: T3, PPARδ-LBD; assay: TR-FRET PGC1α coactivator peptide recruitment assay, PPARδ-LBD
[14] = molecular target: T3, PPARδ-LBD; assay: Circular dichroism thermostability assay, PPARδ-LBD; assay type: binding; parameters: His-tag (pET28a) (N, cleaved yes); made in house; host or cells: E. coli Rosetta (DE3) pLysS; conditions: CD at 222 nm, 10 µM protein, versus 0.1% DMSO
Method: Ligand-induced alterations in Tm values at 222 nm were investigated as types of reflection of α-helical stable structures of PPARs because PPAR ligand binding induces stabilization of the LBP [23, 24].
PPARα/δ/γ-LBD proteins (10 µM) were incubated with different concentrations of ligands in buffer A. CD spectra were monitored within 200–260 nm at increasing temperatures from 30 °C to 70 °C (2 °C/min) using a J-1500 spectropolarimeter equipped with a PTC-510 thermal controller (JASCO, Tokyo, Japan). […] The thermal stability of PPARs was investigated by continuously monitoring the ellipticity changes at 222 nm during thermal denaturation, and a single-site sigmoidal dose-response curve fitting program (Prism 5) was used to obtain the melting temperature (Tm) that corresponds to the midpoint of the denaturation process. The ligand-induced increases in Tm values are defined as ∆Tm.

[15] = COS-7 cells, maximal effect of GW7647 (0.1 µM) as 100%

Row | Compound | pEC50 [8] | pEC50 [9] | pEC50 [10] | pEC50 [11] | efficacy, PPARδ-LBD-mediated transactivation ([11]; COS-7 cells) | pEC50 [12] | efficacy, PPARγ-LBD-mediated transactivation ([12]; COS-7 cells) | pEC50 [13] | efficacy, PPARα-LBD-mediated transactivation [3, 15] | further results
1 | CC(C)(Sc1ccc(CCN(CCCCC2CCCCC2)C(=O)NC2CCCCC2)cc1)C(=O)O [GW7647] | – | – | – | – | – | – | – | – | – | maximal effect, SRC1 recruitment to PPARα-LBD (× of the basal activity) ([1]; at 1 µM): 6.12 ×; maximal effect, PGC1α recruitment to PPARα-LBD (× of the basal activity) ([2]; at 1 µM): 8.87 ×; maximal effect, PPARα-LBD-mediated transactivation (× of the basal activity) ([3]; COS-7 cells, at 0.1 µM): 5.73 ×
2 | CC(C)(Oc1ccc(CCNC(=O)c2ccc(Cl)cc2)cc1)C(=O)O [bezafibrate] | 4.50 | 4.12 | 4.31 | 4.06 | 15.2% | 3.75 | 77.1% | – | – | Cmax [4]: 20.4 µM; pEC50 [5]: 4.60; pEC50 [6]: 4.02; pEC50 [7]: < 4.00; efficacy, PPARα-LBD-mediated transactivation [3]: 93.6%
3 | CC(C)(Oc1ccc(C(=O)c2ccc(Cl)cc2)cc1)C(=O)O [fenofibric acid] | < 3.30 | – | – | < 3.30 | – | – | 87.7% | < 4.00 | 104% | pEC50 [1]: 5.01; pEC50 [2]: 4.68; PGC1α recruitment to PPARδ-LBD (in words) ([13]; TR-FRET): did not recruit PGC1α; pEC50 [3]: 5.02; PPARδ-LBD-mediated transactivation (in words) ([11]; COS-7 cells): did not induce transactivation; effect on Tm of PPARδ-LBD (thermostability, in words) [14]: increased thermostability
4 | CC[C@@H](Oc1cccc(CN(CCCOc2ccc(OC)cc2)c2nc3ccccc3o2)c1)C(=O)O [pemafibrate] | 5.32 | < 5.00 | 5.01 | 5.86 | 11.3% | < 5.30 | 119% | 5.21 | 107% | –
5 | GW1929 | – | – | – | – | – | – | – | – | – | maximal effect, SRC1 recruitment to PPARγ-LBD (× of the basal activity) ([9]; at 1 µM): 9.26 ×; maximal effect, PGC1α recruitment to PPARγ-LBD (× of the basal activity) ([10]; at 1 µM): 5.80 ×; maximal effect, PPARγ-LBD-mediated transactivation (× of the basal activity) ([12]; COS-7 cells, at 1 µM): 2.26 ×
